The values below come from patent publication US11591365B2, “BCL9 peptides and variants thereof” (WntRx Pharmaceuticals Inc., priority 2017, dated 2023).

Usually IC50 stands for the point on the concentration scale where inhibition reaches its midpoint. Low values mean greater potency, high ones weaker potency.

Each structure is given as a SMILES string. *1 amine or outer side, *2 acyl side, *3 side chain or, on linkers, in order; H or OH if unused. Where a SMILES comes first, the peptide text is derived from it. Bridges are numbered along the chain shown (N, C = ends). [ ]: non-standard residue; d: D form. 2Nal = N[C@@H](Cc1ccc2ccccc2c1)C(=O)O; X1 = NC(=O)CCCCN(CC(=O)[*:2])[*:1]; NMeR = CN[C@@H](CCCNC(=N)N)C(=O)O; hArg = N=C(N)NCCCC[C@H](N)C(=O)O; tBuAla = CC(C)(C)C[C@H](N)C(=O)O; NMeQ = CN[C@@H](CCC(N)=O)C(=O)O; Cha = N[C@@H](CC1CCCCC1)C(=O)O; dCha = N[C@H](CC1CCCCC1)C(=O)O; Cba = N[C@@H](CC1CCC1)C(=O)O; S5 = C=CCCC[C@](C)(N)C(=O)O; Ac4c = NC1(C(=O)O)CCC1 Where only a bound is given, the exact number is not on record here.

In this experiment the test system is Colo320DM. Description: Colo320DM cell viability. The format is cell-based, human. The text has this: In some embodiments, a polypeptide described herein inhibits binding of BLC9 to β-catenin when assessed in a cell-viability assay. In some embodiments, the cell-viability assay is a CellTiterGlo luminescent assay, wherein the viability of cells is quantitatively measured. Various cell lines, transformed cell lines or primary cells derived from a healthy subject or subject suffering from a disease can be used in this assay.
As to `CC[C@H](C)[C@@H]1NC(=O)[C@@](C)(NC(=O)[C@H](CCCNC(=N)N)NC(=O)[C@H](CC(C)C)NC(=O)[C@@H](NC(=O)[C@H](CCC(N)=O)NC(=O)[C@H](CC(C)C)NC(=O)[C@H](CO)NC(=O)[C@H](CCCNC(=N)N)NC(=O)[C@H](CCC(N)=O)NC(=O)[C@H](CCCNC(=N)N)N(C)C(=O)[C@H](Cc2c[nH]cn2)NC(C)=O)[C@@H](C)O)CCCC=CCCC[C@@](C)(C(=O)N[C@@H](CC2CCC2)C(=O)N[C@@H](Cc2ccc3ccccc3c2)C(N)=O)NC(=O)[C@H](CCCNC(=N)N)NC(=O)[C@H](CCC(N)=O)NC1=O` (single isomer, unassigned) [SEQ ID NO: 166, H(N-methylR)QRSLQTLRXIQRX(CBA)(2-Nal)], 4.17 µM corresponded to half-maximal inhibition (IC50).

Compound `CC[C@H](C)[C@@H]1NC(=O)[C@@](C)(NC(=O)[C@H](CCCNC(=N)N)NC(=O)[C@H](CC(C)C)NC(=O)[C@@H](NC(=O)[C@H](CCC(N)=O)NC(=O)[C@H](CC(C)C)NC(=O)[C@H](CO)NC(=O)[C@H](CCCNC(=N)N)NC(=O)[C@H](CCC(N)=O)NC(=O)[C@H](CCCNC(=N)N)N(C)C(=O)[C@H](Cc2c[nH]cn2)NC(C)=O)[C@@H](C)O)CCCC=CCCC[C@@](C)(C(=O)N[C@@H](CC2CCC2)C(=O)N[C@@H](Cc2ccc3ccccc3c2)C(N)=O)NC(=O)[C@H](CCCNC(=N)N)NC(=O)[C@H](CCC(N)=O)NC1=O` (single isomer, unassigned) [SEQ ID NO: 158, H(R-Me)QRSLQTLRXIQRX(CBA)(2-Nal)] registered a concentration for half-maximal inhibition (IC50) of 3.32 µM.

On to `CC[C@H](C)[C@@H]1NC(=O)[C@@](C)(NC(=O)[C@H](CCCNC(=N)N)NC(=O)[C@H](CC(C)C)NC(=O)[C@@H](NC(=O)[C@H](CCC(N)=O)NC(=O)[C@H](CC(C)C)NC(=O)[C@H](CO)NC(=O)[C@H](CCCNC(=N)N)NC(=O)[C@H](CCC(N)=O)NC(=O)[C@H](CCCNC(=N)N)NC(=O)[C@H](Cc2c[nH]cn2)NC(C)=O)[C@@H](C)O)CCCC=CCCC[C@@](C)(C(=O)N[C@@H](CC2CCC2)C(=O)N[C@@H](Cc2ccc3ccccc3c2)C(N)=O)NC(=O)[C@H](CCCCNC(=N)N)NC(=O)[C@H](CCC(N)=O)NC1=O` [SEQ ID NO: 171, HRQRSLQTLRXIQ(homoR)X(CBA)(2-Nal)] (Ac-HRQRSLQTLR[S5]IQ[hArg][S5][Cba][2Nal]-NH2; staple 11-15), for which the IC50 was found to be 4.76 µM.

In the case of `CC[C@H](C)[C@@H]1NC(=O)[C@@](C)(NC(=O)[C@H](CCCNC(=N)N)NC(=O)[C@H](CC(C)C)NC(=O)[C@@H](NC(=O)[C@H](CCC(N)=O)NC(=O)[C@H](CC(C)C)NC(=O)[C@H](CO)NC(=O)[C@H](CCCNC(=N)N)NC(=O)[C@H](CCC(=O)O)NC(=O)[C@H](CCCNC(=N)N)NC(=O)[C@H](Cc2c[nH]cn2)NC(C)=O)[C@@H](C)O)CCCC=CCCC[C@@](C)(C(=O)N[C@@H](CC(C)C)C(=O)N[C@@H](Cc2ccc3ccccc3c2)C(N)=O)NC(=O)[C@H](C)NC(=O)[C@H](CCC(N)=O)NC1=O` [SEQ ID NO: 28, HRERSLQTLRXIQAXL(2-Nal)] (Ac-HRERSLQTLR[S5]IQA[S5]L[2Nal]-NH2; staple 11-15), the IC50 was found to be 3.24 µM.

The compound `CC[C@H](C)[C@@H]1NC(=O)[C@@](C)(NC(=O)[C@H](CCCNC(=N)N)NC(=O)[C@H](CC(C)C)NC(=O)[C@@H](NC(=O)[C@H](CCC(N)=O)NC(=O)[C@H](CC(C)C)NC(=O)[C@H](CO)NC(=O)[C@H](CCCNC(=N)N)N(C)C(=O)[C@H](CCC(N)=O)NC(=O)[C@H](CCCNC(=N)N)NC(=O)[C@H](Cc2c[nH]cn2)NC(C)=O)[C@@H](C)O)CCCC=CCCC[C@@](C)(C(=O)N[C@@H](CC2CCC2)C(=O)N[C@@H](Cc2ccc3ccccc3c2)C(N)=O)NC(=O)[C@H](CCCNC(=N)N)NC(=O)[C@H](CCC(N)=O)NC1=O` [SEQ ID NO: 168, HRQ(N-methylR)SLQTLRXIQRX(CBA)(2-Nal)] (Ac-HRQ[NMeR]SLQTLR[S5]IQR[S5][Cba][2Nal]-NH2; staple 11-15; N-terminus and C-terminus assumed) returned an IC50 of 4.14 µM.

Consider `CC[C@H](C)[C@@H]1NC(=O)[C@@](C)(NC(=O)[C@H](CCCNC(=N)N)NC(=O)[C@H](CC(C)C)NC(=O)[C@@H](NC(=O)[C@H](CCC(N)=O)N(C)C(=O)[C@@H](CC2CCCCC2)NC(=O)[C@H](CO)NC(=O)[C@H](CCCNC(=N)N)NC(=O)[C@H](CCC(N)=O)NC(=O)[C@H](CCCNC(=N)N)NC(=O)[C@H](Cc2c[nH]cn2)NC(C)=O)[C@@H](C)O)CCCC=CCCC[C@@](C)(C(=O)N[C@@H](CC2CCCCC2)C(=O)N[C@@H](Cc2ccc3ccccc3c2)C(N)=O)NC(=O)[C@H](CCCNC(=N)N)NC(=O)[C@H](CCC(N)=O)NC1=O` [SEQ ID NO: 187, HRQRSD(Cha)(N-MeGln)TLRXIQRX(Cha)(2-Nal)] (Ac-HRQRS[dCha][NMeQ]TLR[S5]IQR[S5][Cha][2Nal]-NH2; staple 11-15; N-terminus and C-terminus assumed), for which the IC50 amounted to 2.18 µM. This IC50 lies about 1.9-fold lower than the previous one.

The compound `CC[C@H](C)[C@@H]1NC(=O)[C@@](C)(NC(=O)[C@H](CCCNC(=N)N)NC(=O)[C@H](CC(C)C)NC(=O)[C@]2(C)CCCC=CCCC[C@](C)(NC(=O)[C@H](CCCNC(=N)N)NC(=O)[C@H](CCC(N)=O)NC(=O)[C@H](CCCNC(=N)N)NC(=O)[C@H](Cc3c[nH]cn3)NC(C)=O)C(=O)N[C@@H](CC(C)C)C(=O)N[C@@H](CCC(N)=O)C(=O)N2)CCCC=CCCC[C@@](C)(C(=O)N[C@@H](CC2CCC2)C(=O)N[C@@H](Cc2ccc3ccccc3c2)C(N)=O)NC(=O)[C@H](CCCNC(=N)N)NC(=O)[C@H](CCC(N)=O)NC1=O` [SEQ ID NO: 90, HRQRXLQXLRZIQRZ(CBA)(2-Nal)] (Ac-HRQR[S5]LQ[S5]LR[S5]IQR[S5][Cba][2Nal]-NH2; staple 5-8, 11-15) had a concentration for half-maximal inhibition (IC50) of 1.83 µM.

Take `CC[C@H](C)[C@@H]1NC(=O)[C@@](C)(NC(=O)[C@H](CCCNC(=N)N)NC(=O)[C@H](CC(C)C)NC(=O)[C@@H](NC(=O)[C@H](CCC(N)=O)NC(=O)[C@H](CC(C)C)NC(=O)[C@H](CO)NC(=O)[C@H](CCCNC(=N)N)NC(=O)[C@H](CCC(N)=O)NC(=O)[C@H](CCCCNC(=N)N)NC(=O)[C@H](Cc2c[nH]cn2)NC(C)=O)[C@@H](C)O)CCCC=CCCC[C@@](C)(C(=O)N[C@@H](CC2CCCCC2)C(=O)N[C@@H](Cc2ccc3ccccc3c2)C(N)=O)NC(=O)[C@H](CCCNC(=N)N)NC(=O)[C@H](CCC(N)=O)NC1=O` [SEQ ID NO: 183, H(homoArg)QRSLQTLRXIQRX(Cha)(2-Nal)] (Ac-H[hArg]QRSLQTLR[S5]IQR[S5][Cha][2Nal]-NH2; staple 11-15): the half-maximal inhibitory concentration (IC50) was 2.53 µM. The IC50 values of the last two compounds are within 1.5-fold of each other.

`CC[C@H](C)[C@@H]1NC(=O)[C@@](C)(NC(=O)[C@H](CCCNC(=N)N)NC(=O)[C@H](CC(C)C)NC(=O)[C@@H](NC(=O)[C@H](CCC(N)=O)NC(=O)[C@H](CC(C)C)NC(C)=O)[C@@H](C)O)CCCC=CCCC[C@@](C)(C(=O)N[C@@H](CC2CCC2)C(=O)N[C@@H](Cc2ccc3ccccc3c2)C(N)=O)NC(=O)[C@H](CCCNC(=N)N)NC(=O)[C@H](CCC(N)=O)NC1=O` [SEQ ID NO: 107, LQTLRXIQRX(CBA)(2-Nal)] (Ac-LQTLR[S5]IQR[S5][Cba][2Nal]-NH2; staple 6-10): the 50% inhibitory concentration (IC50) was > 5 µM.

For the compound `CC[C@H](C)[C@@H]1NC(=O)[C@@](C)(NC(=O)[C@H](CCCNC(=N)N)NC(=O)[C@H](CC(C)C)NC(=O)[C@@H](NC(=O)[C@H](CCC(N)=O)NC(=O)[C@H](CC(C)C)NC(=O)[C@H](CO)NC(=O)[C@H](CCCNC(=N)N)NC(=O)[C@H](CCC(N)=O)NC(=O)[C@H](CCCNC(=N)N)NC(=O)[C@H](Cc2c[nH]cn2)NC(C)=O)[C@@H](C)O)CCCC=CCCC[C@@](C)(C(=O)NC2(C(=O)N[C@@H](Cc3ccc4ccccc4c3)C(N)=O)CCC2)NC(=O)[C@H](CCCNC(=N)N)NC(=O)[C@H](CCC(N)=O)NC1=O` [SEQ ID NO: 176, HRQRSLQTLRXIQRX(AC4C)(2-Nal)] (Ac-HRQRSLQTLR[S5]IQR[S5][Ac4c][2Nal]-NH2; staple 11-15), the IC50 is > 5 µM.

With `CC[C@H](C)[C@@H]1NC(=O)[C@@](C)(NC(=O)[C@H](CCCNC(=N)N)NC(=O)[C@H](CC(C)C)NC(=O)[C@@H](NC(=O)[C@H](CCC(N)=O)NC(=O)[C@H](CC(C)C)NC(=O)[C@H](CO)NC(=O)[C@H](CCCNC(=N)N)NC(=O)[C@H](CCC(=O)O)NC(=O)[C@H](CCC(N)=O)NC(=O)[C@H](Cc2c[nH]cn2)NC(C)=O)[C@@H](C)O)CCCC=CCCC[C@@](C)(C(=O)N[C@@H](CC(C)C)C(=O)N[C@@H](Cc2ccc3ccccc3c2)C(N)=O)NC(=O)[C@H](CCCNC(=N)N)NC(=O)[C@H](CCC(N)=O)NC1=O` [SEQ ID NO: 11, HQERSLQTLRXIQRXL(2-Nal)] (Ac-HQERSLQTLR[S5]IQR[S5]L[2Nal]-NH2; staple 11-15), the IC50 turned out to be 1.51 µM.

In the case of `CC[C@H](C)[C@@H]1NC(=O)[C@@](C)(NC(=O)[C@H](CCCNC(=N)N)NC(=O)[C@H](CC(C)C)NC(=O)[C@@H](NC(=O)CN(CCCCC(N)=O)C(=O)[C@H](CC(C)C)NC(=O)[C@H](CO)NC(=O)[C@H](CCCNC(=N)N)NC(=O)[C@H](CCC(N)=O)NC(=O)[C@H](CCCNC(=N)N)NC(=O)[C@H](Cc2c[nH]cn2)NC(C)=O)[C@@H](C)O)CCCC=CCCC[C@@](C)(C(=O)N[C@@H](CC2CCC2)C(=O)N[C@@H](Cc2ccc3ccccc3c2)C(N)=O)NC(=O)[C@H](CCCNC(=N)N)NC(=O)[C@H](CCC(N)=O)NC1=O` [SEQ ID NO: 169, HRQRSL(peptoid-Q)TLRXIQRX(CBA)(2-Nal)] (Ac-HRQRSL[X1]TLR[S5]IQR[S5][Cba][2Nal]-NH2; staple 11-15), 4.98 µM corresponded to half-maximal inhibition (IC50). Against the preceding compound, the IC50 is about 3.3-fold higher.

Turning to `CC[C@H](C)[C@@H]1NC(=O)[C@@](C)(NC(=O)[C@H](CCCNC(=N)N)NC(=O)[C@H](CC(C)C)NC(=O)[C@@H](NC(=O)[C@H](CCC(N)=O)NC(=O)[C@H](CC(C)C)NC(=O)[C@H](CO)NC(=O)[C@H](CCCNC(=N)N)NC(=O)[C@H](CCC(N)=O)NC(=O)[C@H](CCCNC(=N)N)NC(=O)[C@H](Cc2c[nH]cn2)NC(C)=O)[C@@H](C)O)CCCC=CCCC[C@@](C)(C(=O)N[C@@H](CC(C)(C)C)C(=O)N[C@@H](Cc2ccc3ccccc3c2)C(N)=O)NC(=O)[C@H](CCCNC(=N)N)NC(=O)[C@H](CCC(N)=O)NC1=O` [SEQ ID NO: 191, HRQRSLQTLRXIQRX(β-tBu-Ala)(2-Nal)] (Ac-HRQRSLQTLR[S5]IQR[S5][tBuAla][2Nal]-NH2; staple 11-15), the half-inhibitory concentration (IC50) is 2.87 µM. Against the preceding compound, the IC50 is about 1.7-fold lower.
